# Measured values taken from US9790169B2, “IDO inhibitors” (BRISTOL-MYERS SQUIBB COMPANY, priority 2015, dated 2017).
# Target: human IDO1 (Homo sapiens, UniProt P14902)
# Assay: Assessment of human IDO-1 inhibitory activity in Hela cells (Interferon-gamma stimulated HeLa cells, Ehrlich reagent, absorbance 490 nm)
# Type: cell-based
# Design: endogenous in cells; host or cells: HeLa cells stimulated with interferon-gamma
# Details: Hela Human IDO-1 cellular assay
# In short: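 IDO activity induced by 18 h IFN-γ (human 10 ng/ml or murine 5 ng/ml, final) after 1 h compound pre-treatment of HeLa cells at 37 °C. Supernatant kynurenine detected via Ehrlich reagent absorbance at 490 nm following 3% TCA at 50 °C; IC50 set against no-IFN-γ and untreated-stimulated controls.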
# Chain of human IDO1 (P14902 whole entry): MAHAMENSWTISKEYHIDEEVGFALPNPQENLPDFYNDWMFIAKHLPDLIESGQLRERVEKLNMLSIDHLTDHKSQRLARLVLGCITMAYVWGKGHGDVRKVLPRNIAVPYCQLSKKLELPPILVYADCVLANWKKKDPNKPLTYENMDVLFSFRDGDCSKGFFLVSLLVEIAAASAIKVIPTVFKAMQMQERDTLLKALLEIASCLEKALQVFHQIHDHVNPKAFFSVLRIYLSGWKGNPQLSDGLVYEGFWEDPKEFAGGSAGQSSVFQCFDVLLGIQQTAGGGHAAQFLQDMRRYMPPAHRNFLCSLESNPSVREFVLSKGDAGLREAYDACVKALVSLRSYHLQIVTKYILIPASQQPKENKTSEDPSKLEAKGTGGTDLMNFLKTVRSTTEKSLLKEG
row,Structure (SMILES),IC50 [nM]
1,"CCC(CC(=O)O)c1cc(F)c(N(CC)C2CCOCC2)c(Nc2cnc(OCC3CC3)nc2)c1 (single isomer, unassigned) [Example 141, 3-(3-((2-(cyclopropylmethoxy)pyrimidin-5-yl)amino)-4-(ethyl(tetrahydro-2H-pyran-4-yl)amino)-5-fluorophenyl)pentanoic acid]",< 5
2,"COCCN(c1ccc(C(C)(C)CC(=O)O)cc1Nc1ccc(C#N)cc1)C1CCOCC1 [Example 16, 3-(3-((4-cyanophenyl)amino)-4-((2-methoxyethyl)(tetrahydro-2H-pyran-4-yl)amino)phenyl)-3-methylbutanoic acid]",< 5
3,"CCOc1ncc(Nc2cc(C(CC)CC(=O)O)ccc2N2CCC(C)CC2)cn1 (single isomer, unassigned) [Example 43, 3-(3-((2-ethoxypyrimidin-5-yl)amino)-4-(4-methylpiperidin-1-yl)phenyl)pentanoic acid]",> 50
4,"CCCN(c1ccc(C(CC)CC(=O)O)cc1NC(=O)Nc1ccc(C)cc1)C1CCS(=O)(=O)CC1 (single isomer, unassigned) [Example 14 Enantiomer 1, 3-(4-((1,1-Dioxidotetrahydro-2h-thiopyran-4-yl)(propyl)amino)-3-(3-(p-tolyl)ureido)phenyl)pentanoic acid]",> 50
5,"CCN(c1ccc([C@@H](COC)CC(=O)O)cc1Nc1ccc(F)cn1)C1CCOCC1 (single isomer, unassigned) [Example 363]",< 50
6,"CCCN(c1ccc([C@H](COC)CC(=O)O)cc1NC(=O)Nc1ccc(Cl)cc1F)C1CCOCC1 (single isomer, unassigned) [Example 576]",< 50
7,"CCC(CC(=O)O)c1ccc(N2C[C@@H]3C[C@H]2CN3C(=O)OC(C)(C)C)c(Nc2ccc(C#N)cc2)c1 (single isomer, unassigned) [Example 443 Diastereomer 2]",< 50
8,"CCN(c1ccc([C@@H](COC)CC(=O)O)cc1NC(=O)Nc1ccc(Cl)cc1F)C1CCOCC1 (single isomer, unassigned) [Example 423]",> 50
9,"CC(CC(=O)O)c1ccc(N(CC(C)(C)O)C2CCCCC2)c(Nc2ccc(Cl)cc2)c1 (single isomer, unassigned) [Example 48 Enantiomer 1, 3-(3-((4-Chlorophenyl)amino)-4-(cyclohexyl(2-hydroxy-2-methylpropyl)amino)phenyl)butanoic acid]",< 5
10,CCOc1ncc(Nc2cc(C(CC)CC(=O)O)cnc2N(CC)C2CCOCC2)cn1 (racemic) [Example 1378],< 5
11,"CCN(c1ccc(C(CC)(CC)CC(=O)O)cc1NC(=O)Nc1ccc(Cl)cc1F)C1CCOCC1 [Example 32, 3-(3-(3-(4-chloro-2-fluorophenyl)ureido)-4-(ethyl(tetrahydro-2H-pyran-4-yl)amino)phenyl)-3-ethylpentanoic acid]",< 5
12,"CCN(c1ccc([C@H](CC(=O)O)C(F)(F)F)cc1NC(=O)Nc1ccc(C#N)cc1)C1CCOCC1 (single isomer, unassigned) [Example 1268]",> 50
13,"CCN(c1ccc([C@@H](COC)CC(=O)O)cc1Nc1ccc(S(=O)(=O)CC)cc1)C1CCOCC1 (single isomer, unassigned) [Example 386]",> 50
14,"CCN(c1ccc([C@@H](CC(=O)O)C(F)(F)F)cc1NC(=O)Nc1ccc(C#N)cc1)C1CCOCC1 (single isomer, unassigned) [Example 1271]",> 50
15,"COCC(CC(=O)O)c1ccc(N2CCOC(C)(C)C2)c(Nc2ccc(C#N)cc2)c1 (single isomer, unassigned) [Example 1316, 3-(3-((4-cyanophenyl)amino)-4-(2,2-dimethylmorpholino)phenyl)-4-methoxybutanoic acid]",> 50
16,"Cc1ccc(NC(=O)Nc2cc(C(CC(=O)O)C3CC3)ccc2N2C[C@@H](C)O[C@@H](C)C2)cc1 (single isomer, unassigned) [Example 251 Enantiomer 1]",> 50
17,CCN(c1ccc([C@H](COC)CC(=O)O)cc1Nc1ccc(C(F)(F)F)cc1)C1CCOCC1 [Example 401],< 5
18,"CCCN(c1ccc(C(C)(C)CC(=O)O)cc1NC(=O)Nc1ccc(C)cc1)C1CCOCC1 [Example 25, 3-Methyl-3-(4-(propyl(tetrahydro-2H-pyran-4-yl)amino)-3-(3-(p-tolyl)ureido)phenyl)butanoic acid]",< 50
19,"CCOc1ccc(Nc2cc([C@H](CC)CC(=O)O)ccc2N(CC)C2CCOCC2)nn1 (single isomer, unassigned) [Example 510]",< 5
20,"CCN(c1cc(F)c([C@H](COC)CC(=O)O)cc1Nc1ccc(C#N)cc1)C1CCOCC1 (single isomer, unassigned) [Example 850, 3-(5-((4-Cyanophenyl)amino)-4-(ethyl(tetrahydro-2H-pyran-4-yl)amino)-2-fluorophenyl)-4-methoxybutanoic acid]",< 5

row,Structure (SMILES),IC50 [nM]
1,"CCCN(c1ccc([C@H](COC)CC(=O)O)cc1Nc1ccc(C#N)cc1)C1CCOCC1 (single isomer, unassigned) [Example 568]",< 5
2,"CCOc1ncc(Nc2cc(C(CC)CC(=O)O)ccc2N(CC)C2CCCOC2)cn1 (single isomer, unassigned) [Example 63, 3-(3-((2-ethoxypyrimidin-5-yl)amino)-4-(ethyl(tetrahydro-2H-pyran-3-yl)amino)phenyl)pentanoic acid]",< 5
3,"COCC(CC(=O)O)c1cc(F)c(N(CC(C)C)CC(C)C)c(Nc2ccc3nc(C)sc3c2)c1 (single isomer, unassigned) [Example 925, 3-(4-(diisobutylamino)-3-fluoro-5-((2-methylbenzo [d]thiazol-6-yl)amino)phenyl)-4-methoxybutanoic acid]",< 50
4,"CCN(c1ccc([C@@H](COC)CC(=O)O)cc1Nc1ccc(C(F)(F)F)cc1)C1CCOCC1 (single isomer, unassigned) [Example 364]",< 5
5,"CCOc1ncc(Nc2cc([C@H](CC)Cc3cnco3)ccc2N(CC)C2CCOCC2)cn1 [Example 1335, (R)-N2-(2-Ethoxypyrimidin-5-yl)-N1-ethyl-4-(1-(oxazol-5-yl)butan-2-yl)-N1-(tetrahydro-2H-pyran-4-yl)benzene-1,2-diamine]",> 50
6,"CCN(c1ccc(C(C)CC(=O)O)cc1Nc1cnc(OC)nc1)C1CCOCC1 (single isomer, unassigned) [Example 620, 3-(4-(ethyl(tetrahydro-2H-pyran-4-yl)amino)-3-((2-methoxypyrimidin-5-yl)amino)phenyl)butanoic acid]",< 50
7,"CC[C@@H](CC(=O)O)c1ccc(N(CC2CC2)CC(C)(C)O)c(Nc2ccc(C#N)cc2)c1 (single isomer, unassigned) [Example 268]",< 5
8,"COCCN(c1ccc(C(C)(C)CC(=O)O)cc1NC(=O)Nc1ccc(C#N)cc1)C1CCOCC1 [Example 19, 3-(3-(3-(4-cyanophenyl)ureido)-4-((2-methoxyethyl)(tetrahydro-2H-pyran-4-yl)amino)phenyl)-3-methylbutanoic acid]",> 50
9,"CCN(c1ccc(C(C)(C)CC(=O)O)cc1Nc1ccc(Cl)cc1)C1CCS(=O)(=O)CC1 [Example 180, 3-(3-((4-chlorophenyl)amino)-4-((1,1-dioxidotetrahydro-2H-thiopyran-4-yl)(ethyl)amino)phenyl)-3-methylbutanoic acid]",< 5
10,"CCC(CC(=O)O)c1cc(F)c(N(CC)C2CCOCC2)c(Nc2cnc(OCC3CC3)nc2)c1 (single isomer, unassigned) [Example 136, 3-(3-((2-(cyclopropylmethoxy)pyrimidin-5-yl)amino)-4-(ethyl(tetrahydro-2H-pyran-4-yl)amino)-5-fluorophenyl)pentanoic acid]",< 50
11,"CCCN(c1ccc([C@H](COC)CC(=O)O)cc1Nc1ccc2nc(C)sc2c1)C1CCOCC1 (single isomer, unassigned) [Example 570]",< 50
12,"CCC(CC(=O)O)c1cc(Nc2cnc(OCC3CC3)nc2)c(N(CC)C2CCOCC2)cc1F (single isomer, unassigned) [Example 858, 3-(5-((2-(cyclopropyl-methoxy)pyrimidin-5-yl)amino)-4-(ethyl(tetra-hydro-2H-pyran-4-yl)amino)-2-fluorophenyl) pentanoic acid]",< 5
13,"CCC(CC(=O)O)c1cc(F)c(N(CC)C2CCOCC2)c(Nc2cnc(OC)nc2)c1 (single isomer, unassigned) [Example 140, 3-(4-(ethyl(tetrahydro-2H-pyran-4-yl)amino)-3-fluoro-5-((2-methoxypyrimidin-5-yl)amino)phenyl) pentanoic acid]",< 5
14,"CCC(CC(=O)O)c1ccc(N(C)C2CCOCC2)c(Nc2ccc(Cl)cc2)c1 (single isomer, unassigned) [Example 867, 3-(3-((4-Chlorophenyl)amino)-4-(methyl(tetrahydro-2H-pyran-4-yl)amino)phenyl)pentanoic acid]",< 5
15,"CCC(CC(=O)O)c1ccc(N2C[C@@H]3C[C@H]2CN3C(=O)OC(C)(C)C)c(Nc2ccc(C#N)cc2)c1 (single isomer, unassigned) [Example 443 Diastereomer 1]",< 5
16,"CCC(CC(=O)O)c1ccc(N2CCC(C)CC2)c(NC(=O)Nc2ccc(C)cc2)c1 (single isomer, unassigned) [Example 46 Enantiomer 1, 3-(4-(4-Methylpiperidin-1-yl)-3-(3-(p-tolyl)ureido)phenyl)pentanoic acid]",> 50
17,"CCOc1ccc(Nc2cc([C@@H](CC)CC(=O)O)ccc2N(CC)C2CCOCC2)nn1 (single isomer, unassigned) [Example 467]",< 50
18,"CCCN(c1ccc([C@@H](CC)CC(=O)O)cc1NC(=O)Nc1ccc(Cl)cc1F)C1CCOCC1 (single isomer, unassigned) [Example 544]",< 5
19,"CCCN(c1ccc([C@H](COC)CC(=O)O)cc1Nc1ccc(F)cc1)C1CCOCC1 (single isomer, unassigned) [Example 572]",< 50
